{"source": "patent US20190210973A1", "about": "“COMPOUNDS AND METHODS FOR TREATMENT OF CYSTIC FIBROSIS” (The Curators of the University of Missouri, priority 2018, published 2019)", "format_in_all_cases": "cell-based", "key": {"G551D-CFTR": {"molecular_target": "T1, G551D-CFTR (Homo sapiens, UniProt P13569, G551D)", "T1 construct": "The cDNA constructs of CFTR (G551D and delF508) were co-transfected with peGFP-C3; expressed in transfected cells; host or cells: CHO cells (ATCC), transient co-transfection with pEGFP-C3 (GFP as a separate marker, not fused)", "T1 sequence (P13569 whole entry G551D, the tested form may be a part)": "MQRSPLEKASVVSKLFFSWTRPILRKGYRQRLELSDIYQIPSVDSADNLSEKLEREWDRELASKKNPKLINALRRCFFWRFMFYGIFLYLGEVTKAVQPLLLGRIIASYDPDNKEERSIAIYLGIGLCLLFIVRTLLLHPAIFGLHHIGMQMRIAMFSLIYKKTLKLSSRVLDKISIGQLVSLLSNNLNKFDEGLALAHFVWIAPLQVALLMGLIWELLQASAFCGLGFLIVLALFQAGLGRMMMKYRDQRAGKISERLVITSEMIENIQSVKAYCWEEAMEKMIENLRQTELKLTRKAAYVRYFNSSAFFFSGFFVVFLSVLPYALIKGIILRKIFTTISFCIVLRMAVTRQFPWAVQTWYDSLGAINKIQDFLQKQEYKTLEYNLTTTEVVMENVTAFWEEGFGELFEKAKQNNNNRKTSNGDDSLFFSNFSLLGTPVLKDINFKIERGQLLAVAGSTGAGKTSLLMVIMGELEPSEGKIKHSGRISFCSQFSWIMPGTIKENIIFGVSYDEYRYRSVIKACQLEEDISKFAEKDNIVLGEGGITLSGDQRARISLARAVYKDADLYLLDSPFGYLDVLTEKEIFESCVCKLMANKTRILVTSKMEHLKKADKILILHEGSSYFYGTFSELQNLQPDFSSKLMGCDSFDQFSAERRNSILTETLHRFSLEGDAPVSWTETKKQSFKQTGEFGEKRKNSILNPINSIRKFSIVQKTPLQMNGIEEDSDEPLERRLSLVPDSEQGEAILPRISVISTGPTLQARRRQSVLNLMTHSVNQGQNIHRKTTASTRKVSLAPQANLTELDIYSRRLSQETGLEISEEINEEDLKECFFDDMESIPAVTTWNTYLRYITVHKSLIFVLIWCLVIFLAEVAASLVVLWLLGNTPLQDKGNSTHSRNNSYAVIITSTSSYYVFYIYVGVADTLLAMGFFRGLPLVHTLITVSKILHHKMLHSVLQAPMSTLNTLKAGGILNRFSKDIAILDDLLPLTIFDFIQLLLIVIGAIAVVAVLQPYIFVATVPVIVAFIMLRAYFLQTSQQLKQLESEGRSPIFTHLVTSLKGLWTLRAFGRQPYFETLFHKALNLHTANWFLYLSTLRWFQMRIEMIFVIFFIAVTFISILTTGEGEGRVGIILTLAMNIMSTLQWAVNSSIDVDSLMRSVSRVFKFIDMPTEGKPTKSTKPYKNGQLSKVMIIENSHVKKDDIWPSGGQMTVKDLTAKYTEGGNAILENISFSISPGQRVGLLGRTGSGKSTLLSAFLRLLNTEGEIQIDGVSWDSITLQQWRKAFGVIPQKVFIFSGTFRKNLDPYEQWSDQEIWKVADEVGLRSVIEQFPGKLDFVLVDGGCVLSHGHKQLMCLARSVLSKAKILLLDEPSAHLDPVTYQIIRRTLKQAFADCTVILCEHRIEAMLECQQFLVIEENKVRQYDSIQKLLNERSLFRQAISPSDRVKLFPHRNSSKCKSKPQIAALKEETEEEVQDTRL", "experiment": "Patch-clamp recording of G551D-CFTR currents in excised inside-out patches of transfected CHO cells", "details": "for fold increase of G551D-CFTR currents (ILZH+ATP/IATP): single application", "excerpt": "(§1) Patch-clamp is considered the gold standard for assessing directly ion channel function in real time. By attaching a glass microelectrode on the surface of a cell, it is possible to record the currents generated by channels proteins that are present in this tiny “patch” of cell membranes. Since millions of ions pass through a single ion channel pore per second, the resulting microscopic currents from a single channel protein molecule can be detected with modem patch-clamp amplifiers. As ion channels (a conductor in electricity term) are arranged in parallel in the cell membrane, it is also possible to assay a group of ion channels by monitoring macroscopic currents representing the sum of currents from individual channels. Microscopic recordings allow artisans to examine exquisitely the effects of compounds on the Po and kinetic parameters of CFTR channels; whereas macroscopic recordings provide an assay not only to quantify the overall effects of compounds on N×Po×i, but also monitor the stability of the CFTR currents in real time.\n(§2) Chinese hamster ovary (CHO) cells were grown at 37° C. in Dulbecco's modified Eagle's medium supplemented with 10% fetal bovine serum. Cells were subcultured into 35-mm tissue culture dishes 1 day before transfection. PolyFect transfection reagent (QIAGEN) was used to cotransfect CFTR cDNA and pEGFP-C3 (Takara Bio Inc.), which encodes green fluorescence proteins, into CHO cells. After transfection, cells were incubated at 27° C. for at least 2 days before electrophysiological experiments were performed.\n(§3) Glass chips carrying the transfected cells were transferred to a chamber located on the stage of an inverted microscope (IX51; Olympus). Borosilicate capillary glasses were used to make patch pipettes using a two-stage micropipette puller (PP-81, Narishige, Japan). The pipettes were polished with a homemade microforge to a resistance of 2-4 MΩ in the bath solution. Once the seal resistance reached >40 GΩ, membrane patches were excised into an inside-out mode. Subsequently, the pipette was moved to the outlet of a three-barrel perfusion system and perfused with 25 IU PKA and 2 mM ATP until the CFTR current reached a steady state. A patch-clamp amplifier (EPC10, HEKA, Germany) was used to record electrophysiological data at room temperature. The data were filtered online at 100 Hz with an eight-pole Bessel filter (LPF-8; Warner Instruments) and digitized to a computer at a sampling rate of 500 Hz. […] Membrane potential was held at −30 or −50 mV for all recordings.\n(§4) Disease-causing mutations (G551D and delF508) were made with PCR-based site-directed mutagenesis using the Pfu Ultra II (Agilent Technologies). […] The cDNA constructs of CFTR (G551D and delF508) were co-transfected with peGFP-C3 (Takara Bio Inc.) encoding the green fluorescent protein into CHO cells using PolyFect transfection reagent (QIAGEN). The transfected cells were transferred into 35 mm tissue culture dishes containing one layer of sterilized glass chips for cells to grow on. The transfected cells were incubated at 27° C. for 2-7 days before electrophysiological experiments were performed.\n(§5) All patch-clamp experiments were carried out in the excised inside-out configuration. Micropipettes made of borosilicate capillary glass were pulled with a two-stage vertical puller (Narishige) and then fire-polished with a homemade microforge to reach a pipet resistance of 2-4 MΩ when the pipettes were filled with a standard inside-out pipet solution that contains: 140 mM N-Methyl-D-glucamine-Cl (NMDG-Cl), 2 mM MgCl2, 5 mM CaCl2) and 10 mM HEPES, adjusted to pH 7.4 with NMDG."}, "delF508-CFTR [1]": {"molecular_target": "T2, delF508-CFTR (Homo sapiens, UniProt P13569, DEL508-508)", "T2 sequence (P13569 with tags, fused parts or gaps DEL508-508)": "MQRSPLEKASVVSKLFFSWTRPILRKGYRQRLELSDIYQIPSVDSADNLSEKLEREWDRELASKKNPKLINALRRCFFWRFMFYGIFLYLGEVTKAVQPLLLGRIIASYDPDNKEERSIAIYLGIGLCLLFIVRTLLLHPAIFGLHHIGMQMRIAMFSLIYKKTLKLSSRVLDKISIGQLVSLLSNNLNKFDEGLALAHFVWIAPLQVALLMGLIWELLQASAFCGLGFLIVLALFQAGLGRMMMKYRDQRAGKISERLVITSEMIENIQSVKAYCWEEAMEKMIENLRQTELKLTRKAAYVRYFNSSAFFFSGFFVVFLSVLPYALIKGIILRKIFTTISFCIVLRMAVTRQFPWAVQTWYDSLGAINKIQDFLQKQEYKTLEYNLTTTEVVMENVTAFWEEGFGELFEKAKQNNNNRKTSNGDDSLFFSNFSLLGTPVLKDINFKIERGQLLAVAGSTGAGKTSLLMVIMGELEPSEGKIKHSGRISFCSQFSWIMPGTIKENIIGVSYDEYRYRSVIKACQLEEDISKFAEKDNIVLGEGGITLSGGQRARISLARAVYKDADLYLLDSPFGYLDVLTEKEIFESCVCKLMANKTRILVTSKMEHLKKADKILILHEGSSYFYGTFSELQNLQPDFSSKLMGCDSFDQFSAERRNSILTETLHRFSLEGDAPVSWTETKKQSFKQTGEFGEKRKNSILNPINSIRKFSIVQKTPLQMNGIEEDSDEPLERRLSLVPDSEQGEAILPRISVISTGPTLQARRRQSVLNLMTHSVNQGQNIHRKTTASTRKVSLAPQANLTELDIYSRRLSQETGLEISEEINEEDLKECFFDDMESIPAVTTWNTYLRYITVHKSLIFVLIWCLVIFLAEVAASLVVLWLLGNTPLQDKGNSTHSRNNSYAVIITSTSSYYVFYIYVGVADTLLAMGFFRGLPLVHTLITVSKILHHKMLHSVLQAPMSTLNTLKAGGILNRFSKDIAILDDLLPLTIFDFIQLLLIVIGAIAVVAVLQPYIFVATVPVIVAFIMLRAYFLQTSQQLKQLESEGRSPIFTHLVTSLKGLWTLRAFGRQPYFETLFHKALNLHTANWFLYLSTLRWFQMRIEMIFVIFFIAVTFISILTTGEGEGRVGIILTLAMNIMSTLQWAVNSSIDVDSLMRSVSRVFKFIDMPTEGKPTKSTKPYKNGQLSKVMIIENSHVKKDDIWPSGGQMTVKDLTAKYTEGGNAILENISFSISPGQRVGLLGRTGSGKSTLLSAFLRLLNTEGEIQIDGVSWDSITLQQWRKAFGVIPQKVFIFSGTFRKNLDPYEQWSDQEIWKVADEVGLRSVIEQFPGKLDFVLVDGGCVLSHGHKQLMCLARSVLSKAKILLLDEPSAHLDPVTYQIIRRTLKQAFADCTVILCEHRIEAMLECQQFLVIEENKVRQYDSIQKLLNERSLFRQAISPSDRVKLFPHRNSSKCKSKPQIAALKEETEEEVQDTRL", "experiment": "Patch-clamp recording of delF508-CFTR currents in excised inside-out patches of transfected CHO cells", "excerpt": "as §1, §2, §3, §4, §5"}, "delF508-CFTR [2]": {"molecular_target": "T2, delF508-CFTR", "experiment": "Western blot of delF508-CFTR membrane (surface) expression, Band C", "parameters": "delF508 stably-transfected C127 cells were cultured in DMEM with 10% FBS in 6-well plates; expressed in transfected cells; host or cells: C127 cells stably expressing delF508-CFTR", "details": "for surface expression of delF508-CFTR (Band C, corrected to vimentin, DMSO = 100): C127 cells", "excerpt": "The amount of CFTR proteins in the cell membrane can be determined with Western blot analysis. Like all membrane proteins in the cell, the CFTR protein is synthesized in the endoplasmic reticulum (ER), translocated to the Golgi apparatus for glycosylation before trafficked to the plasma membrane. Because of the addition of complex sugar molecules to CFTR, the molecular weight of “mature” or post-Golgi CFTR in the plasma membrane is higher than that of newly synthesized proteins in the ER. Thus, in Western blot, it is possible to discern two distinct bands: band C representing high molecular weight, mature CFTR, and band B low molecular weight, immature CFTR. While wild-type proteins are present mostly as band C, Class II disease-associated mutations such as delF508 causes a drastic diminution of band C, resulting in an effective decrease of N in the formula N×Po×i. The effects of the reagents (or CFTR correctors) that enhance band C can thus be quantitatively assessed with the Western blot analysis. By the same token, any interactions between different compounds, with positive or negative impact on band C, can be determined with this assay.\nWestern blot experiments were carried out in both transient expression system (CHO cells) and a stable cell line (C127 cells). CHO cells, grown in 35 mm dishes, were transfected with delF508-CFTR construct in pcDNA plasmids using X-tremeGENE (Roche). Six hours after transfection, tested compounds were added to the medium. In case of delF508-CFTR-expressing stable C127 cells, compounds were added to the medium at about 30% confluence. In both cases, cells were lysed 18 hours post drug treatment using 1×SDS loading buffer. Cell lysates were sheared by pushed through 18G needles. Whole cell lysate were separated in 4˜20% gradient gels (Bio-Rad Laboratories) and transferred onto nitrocellulose membranes. The membranes were blocked with 5% milk in TBST buffer (20 mM Tris, 137 mM NaCl, 0.1% Tween 20) at 4° C. overnight. The membranes were then probed with anti-CFTR antibody (AB596 from the Cystic Fibrosis Foundation) and anti-vimentin antibody as a control (Santa Cruz Biotechnology) at room temperature for two hours. The membranes were washed with TBST five times and then incubated with anti-mouse IgG, HRP-linked antibody (Cell Signaling Technology) at room temperature for one hour. The membranes were washed three times with TBST and developed with chemiluminescence reagent (Thermo Scientific). The luminescence was detected and quantified by a Molecular Image Chemi Doc (Bio-Rad Laboratories).\nFor Western blotting experiments, delF508 stably-transfected C127 cells were cultured in DMEM with 10% FBS in 6-well plates. Different tested compounds were added to the culture medium within 24 hours of passage to the desired concentration. Cells were lysed 18 hours post drug treatment using 1×SDS loading buffer. Cell lysates were sheared by pushed through 18G needles. Whole cell lysates were separated in 4-20% gradient gels (Bio-Rad Laboratories) and transferred onto nitrocellulose membranes. The membranes were blocked with 5% milk in TBST buffer (20 mM Tris, 137 mM NaCl, 0.1% Tween 20) at 4° C. overnight. The membranes were then probed with anti-CFTR antibody (AB660 from CFTR foundation) and anti-vimentin antibody as a loading control (Santa Cruz Biotechnology) at room temperature for two hours. The membranes were washed with TBST five times and then incubated with anti-mouse IgG, HRP linked antibody (Cell Signaling Technology) at room temperature for one hour. The membranes were washed three times with TBST and developed with chemiluminescence reagent (Thermo Scientific). The luminescence was detected by a Molecular Image Chemi Doc (Bio-Rad Laboratories). […]"}}, "note": "Several values for one entry are separate records, joined by “and”; a condition that tells them apart may be missing. Identical values can stand only once. Entries after “also recorded” stand apart in the source; their conditions may differ."}
{"smiles": "CNCCCCCCOc1ccc(-c2n[nH]c3cc(Br)ccc23)c(F)c1", "note": "[LZH-00014, 6-(4-(6-bromo-1H-indazol-3-yl)-3-fluorophenoxy)-N-methylhexan-1-amine]", "values": [{"measurement": "concentration to achieve a similar effect as LZH-00003, fold lower", "setting": "G551D-CFTR; G551D-CFTR, FIG. 6A and FIG. 7A", "result": 10, "unit": "fold"}, {"measurement": "effect on G551D-CFTR currents, compound alone", "setting": "G551D-CFTR; after activation by PKA and ATP", "result": "greatly potentiated"}, {"measurement": "fold increase of G551D-CFTR currents (ILZH+ATP+VX-770/IATP)", "setting": "G551D-CFTR; combined application with VX-770, 0.2 μM LZH compound", "result": "6.5 ± 1.0, N = 4 fold"}, {"measurement": "fold increase of G551D-CFTR currents (ILZH+ATP+VX-770/IATP)", "setting": "G551D-CFTR; combined application with VX-770, 1 μM LZH compound", "result": "7.6 ± 1.6, N = 4 fold"}, {"measurement": "fold increase of G551D-CFTR currents (ILZH+ATP+VX-770/IATP)", "setting": "G551D-CFTR; combined application with VX-770, 5 μM LZH compound", "result": "66.6 ± 10.3, N = 4 fold"}, {"measurement": "fold increase of G551D-CFTR currents (ILZH+ATP/IATP)", "setting": "G551D-CFTR; 1 μM", "result": "4.5 ± 0.7, N = 4 fold"}, {"measurement": "fold increase of G551D-CFTR currents (ILZH+ATP/IATP)", "setting": "G551D-CFTR; 5 μM", "result": "16.0±5.1 fold and 16.0 ± 5.1, N = 5 fold"}, {"measurement": "fold increase of G551D-CFTR currents (ILZH+ATP/IATP)", "setting": "G551D-CFTR; 20 μM", "result": "12.7 ± 4.3, N = 3 fold"}, {"measurement": "fold increase of delF508-CFTR currents (ILZH+ATP+VX-770/IATP)", "setting": "delF508-CFTR [1]; combined application with VX-770 (200 nM), 2.5 μM LZH compound", "result": "7.9 ± 0.7, N = 3 fold"}, {"measurement": "fold increase of delF508-CFTR currents (ILZH+ATP+VX-770/IATP)", "setting": "delF508-CFTR [1]; combined application with VX-770, 0.5 μM LZH compound", "result": "6.0 ± 1.6, N = 3 fold"}, {"measurement": "fold increase of delF508-CFTR currents (ILZH+ATP/IATP)", "setting": "delF508-CFTR [1]; single application, 5 μM", "result": "7.4 ± 1.6, N = 5 fold"}, {"measurement": "surface expression of delF508-CFTR (Band C, corrected to vimentin, DMSO = 100)", "setting": "delF508-CFTR [2]; 3 μM VX-809 + 0.1 μM LZH compound, lane 5", "result": "670 ± 211, N = 5"}, {"measurement": "surface expression of delF508-CFTR (Band C, corrected to vimentin, DMSO = 100)", "setting": "delF508-CFTR [2]; 3 μM VX-809 + 0.5 μM LZH compound, lane 4", "result": "617 ± 63, N = 5"}, {"measurement": "surface expression of delF508-CFTR (Band C, corrected to vimentin, DMSO = 100)", "setting": "delF508-CFTR [2]; 3 μM VX-809 + 5 μM LZH compound, lane 3", "result": "609 ± 185, N = 5"}, {"measurement": "influence on the effect of Lumacaftor (VX-809) on membrane expression of delF508-CFTR (words)", "setting": "delF508-CFTR [2]; added to 3 μM VX-809", "result": "enhances the effect of Lumacaftor; also recorded: retains or even enhances the effect of Lumacaftor"}]}
